Source: ChEMBL document CHEMBL1201862, “PubChem BioAssay data set” (2004)
Active and inactive are the calls of the source.

What was measured:
Assay type in all cases: functional
[1] = biological target: Serine/threonine-protein kinase TBK1 (Homo sapiens, UniProt Q9UHD2); test: Navigating the Kinome. Panel member name: TBK1
[2] = biological target: Tyrosine-protein kinase Lck (Homo sapiens, UniProt P06239);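 note: lck was assayed as one member of a kinase panel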
Activin receptor type-1 = Activin receptor type-1 (Homo sapiens, UniProt Q04771); test: Navigating the Kinome. Panel member name: ACVR1
[3] = biological target: Serine/threonine-protein kinase PAK 4 (Homo sapiens, UniProt O96013);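 note: value obtained within a kinome profiling panel in which PAK4 was one of the panel members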
[4] = biological target: Fibroblast growth factor receptor 1 (Homo sapiens, UniProt P11362)
[5] = biological target: Glycogen synthase kinase-3 alpha (Homo sapiens, UniProt P49840);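 note: GSK3A result taken from a broad kinome-wide kinase panel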
Sequence of Glycogen synthase kinase-3 alpha (P49840 whole entry): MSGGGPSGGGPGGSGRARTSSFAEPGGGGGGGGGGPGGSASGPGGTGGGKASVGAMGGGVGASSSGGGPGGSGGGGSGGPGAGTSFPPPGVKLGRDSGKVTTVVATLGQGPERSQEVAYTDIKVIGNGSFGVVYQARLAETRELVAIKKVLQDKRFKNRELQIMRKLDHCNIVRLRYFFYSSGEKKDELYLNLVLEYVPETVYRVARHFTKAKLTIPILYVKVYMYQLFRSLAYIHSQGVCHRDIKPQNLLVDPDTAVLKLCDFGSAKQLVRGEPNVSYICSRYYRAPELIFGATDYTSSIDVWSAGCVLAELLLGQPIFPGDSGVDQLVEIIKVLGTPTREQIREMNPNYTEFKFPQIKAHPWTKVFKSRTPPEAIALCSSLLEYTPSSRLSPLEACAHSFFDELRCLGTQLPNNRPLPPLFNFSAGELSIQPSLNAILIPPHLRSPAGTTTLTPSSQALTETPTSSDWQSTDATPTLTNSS

[6] = biological target: Cyclin-dependent kinase 5 (Homo sapiens, UniProt Q00535);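 note: CDK5 measured as one member of a kinase profiling panel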
Sequence of Cyclin-dependent kinase 5 (Q00535 whole entry): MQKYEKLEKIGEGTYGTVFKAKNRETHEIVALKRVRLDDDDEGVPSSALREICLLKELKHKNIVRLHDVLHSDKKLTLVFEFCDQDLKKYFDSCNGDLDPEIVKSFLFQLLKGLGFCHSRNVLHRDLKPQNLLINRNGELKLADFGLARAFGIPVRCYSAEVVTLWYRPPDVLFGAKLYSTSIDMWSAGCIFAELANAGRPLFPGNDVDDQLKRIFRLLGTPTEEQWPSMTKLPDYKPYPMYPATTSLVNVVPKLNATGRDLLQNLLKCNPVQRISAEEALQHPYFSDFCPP

[7] = biological target: Cyclin-dependent kinase 8 (Homo sapiens, UniProt P49336); test: Navigating the Kinome. Panel member name: CDK8
Sequence of Cyclin-dependent kinase 8 (P49336 whole entry): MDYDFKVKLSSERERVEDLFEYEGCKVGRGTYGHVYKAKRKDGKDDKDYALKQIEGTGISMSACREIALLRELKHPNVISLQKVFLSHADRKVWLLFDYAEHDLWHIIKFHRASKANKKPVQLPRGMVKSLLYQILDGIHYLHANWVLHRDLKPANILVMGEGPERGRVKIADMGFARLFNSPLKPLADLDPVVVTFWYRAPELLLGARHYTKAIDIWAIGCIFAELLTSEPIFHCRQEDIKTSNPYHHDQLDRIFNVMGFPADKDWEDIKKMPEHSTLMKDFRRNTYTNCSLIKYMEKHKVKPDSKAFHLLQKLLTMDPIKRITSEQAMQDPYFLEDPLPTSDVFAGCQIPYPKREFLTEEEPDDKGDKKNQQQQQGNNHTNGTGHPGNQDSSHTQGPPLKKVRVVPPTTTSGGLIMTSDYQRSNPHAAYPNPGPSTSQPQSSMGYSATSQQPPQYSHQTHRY

[8] = biological target: Cyclin-dependent kinase 7 (Homo sapiens, UniProt P50613);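 note: value comes from a kinome-wide kinase profiling panel in which CDK7 is one member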
Sequence of Cyclin-dependent kinase 7 (P50613 whole entry): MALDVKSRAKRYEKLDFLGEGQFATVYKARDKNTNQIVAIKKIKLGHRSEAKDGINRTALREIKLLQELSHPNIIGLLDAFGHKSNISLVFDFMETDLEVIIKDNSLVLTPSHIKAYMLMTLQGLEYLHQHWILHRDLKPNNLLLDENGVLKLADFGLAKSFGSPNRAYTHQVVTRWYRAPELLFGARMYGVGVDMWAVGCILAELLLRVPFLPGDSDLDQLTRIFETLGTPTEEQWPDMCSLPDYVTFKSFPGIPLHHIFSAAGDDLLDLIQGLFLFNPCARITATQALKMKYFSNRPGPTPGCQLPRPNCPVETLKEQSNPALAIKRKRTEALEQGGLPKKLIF

[9] = biological target: Glycogen synthase kinase-3 beta (Homo sapiens, UniProt P49841);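 note: value comes from a broad kinome profiling panel, with GSK3B as the panel member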
Sequence of Glycogen synthase kinase-3 beta (P49841 whole entry): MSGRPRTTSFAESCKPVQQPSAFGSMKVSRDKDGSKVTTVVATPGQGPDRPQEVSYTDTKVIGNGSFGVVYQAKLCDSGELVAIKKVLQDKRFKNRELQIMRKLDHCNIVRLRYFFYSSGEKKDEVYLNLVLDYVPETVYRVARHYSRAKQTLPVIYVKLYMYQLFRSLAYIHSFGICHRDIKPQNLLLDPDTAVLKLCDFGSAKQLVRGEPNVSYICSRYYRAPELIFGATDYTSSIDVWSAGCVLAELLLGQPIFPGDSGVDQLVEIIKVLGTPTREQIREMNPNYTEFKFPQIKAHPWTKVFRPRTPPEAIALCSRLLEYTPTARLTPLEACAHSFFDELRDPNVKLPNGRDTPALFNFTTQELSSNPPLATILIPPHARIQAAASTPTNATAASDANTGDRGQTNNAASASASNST

[10] = biological target: Cyclin-dependent kinase 9 (Homo sapiens, UniProt P50750);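 note: value from the CDK9 entry of a kinome-spanning kinase panel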
[11] = biological target: Mitogen-activated protein kinase kinase kinase kinase 4 (Homo sapiens, UniProt O95819)
[12] = biological target: Inhibitor of nuclear factor kappa-B kinase subunit epsilon (Homo sapiens, UniProt Q14164); test: Navigating the Kinome. Panel member name: IKBKE
[13] = biological target: Mitogen-activated protein kinase 14 (Homo sapiens, UniProt Q16539);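 note: part of a kinome-wide panel, MAPK14 entry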
[14] = biological target: Protein kinase C theta type (Homo sapiens, UniProt Q04759); test: Navigating the Kinome. Panel member name: PRKCQ
[15] = biological target: Tyrosine-protein kinase JAK2 (Homo sapiens, UniProt O60674);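 note: JAK2 tested as one member of a kinase panel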
[16] = biological target: Casein kinase I isoform alpha (Homo sapiens, UniProt P48729)
Sequence of Casein kinase I isoform alpha (P48729 whole entry, canonical isoform): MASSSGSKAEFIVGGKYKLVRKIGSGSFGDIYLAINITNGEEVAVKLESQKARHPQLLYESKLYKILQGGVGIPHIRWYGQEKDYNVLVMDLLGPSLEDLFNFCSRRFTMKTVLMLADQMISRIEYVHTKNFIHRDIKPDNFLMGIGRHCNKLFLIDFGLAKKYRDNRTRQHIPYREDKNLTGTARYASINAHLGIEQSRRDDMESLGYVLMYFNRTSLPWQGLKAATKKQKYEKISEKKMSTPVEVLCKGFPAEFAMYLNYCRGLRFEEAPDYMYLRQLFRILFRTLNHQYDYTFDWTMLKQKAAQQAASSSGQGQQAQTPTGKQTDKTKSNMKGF

[17] = biological target: Mitogen-activated protein kinase kinase kinase kinase 2 (Homo sapiens, UniProt Q12851);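 note: measured as one member of a kinome-wide kinase panel, with MAP4K2 as the panel entry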
Sequence of Mitogen-activated protein kinase kinase kinase kinase 2 (Q12851 whole entry): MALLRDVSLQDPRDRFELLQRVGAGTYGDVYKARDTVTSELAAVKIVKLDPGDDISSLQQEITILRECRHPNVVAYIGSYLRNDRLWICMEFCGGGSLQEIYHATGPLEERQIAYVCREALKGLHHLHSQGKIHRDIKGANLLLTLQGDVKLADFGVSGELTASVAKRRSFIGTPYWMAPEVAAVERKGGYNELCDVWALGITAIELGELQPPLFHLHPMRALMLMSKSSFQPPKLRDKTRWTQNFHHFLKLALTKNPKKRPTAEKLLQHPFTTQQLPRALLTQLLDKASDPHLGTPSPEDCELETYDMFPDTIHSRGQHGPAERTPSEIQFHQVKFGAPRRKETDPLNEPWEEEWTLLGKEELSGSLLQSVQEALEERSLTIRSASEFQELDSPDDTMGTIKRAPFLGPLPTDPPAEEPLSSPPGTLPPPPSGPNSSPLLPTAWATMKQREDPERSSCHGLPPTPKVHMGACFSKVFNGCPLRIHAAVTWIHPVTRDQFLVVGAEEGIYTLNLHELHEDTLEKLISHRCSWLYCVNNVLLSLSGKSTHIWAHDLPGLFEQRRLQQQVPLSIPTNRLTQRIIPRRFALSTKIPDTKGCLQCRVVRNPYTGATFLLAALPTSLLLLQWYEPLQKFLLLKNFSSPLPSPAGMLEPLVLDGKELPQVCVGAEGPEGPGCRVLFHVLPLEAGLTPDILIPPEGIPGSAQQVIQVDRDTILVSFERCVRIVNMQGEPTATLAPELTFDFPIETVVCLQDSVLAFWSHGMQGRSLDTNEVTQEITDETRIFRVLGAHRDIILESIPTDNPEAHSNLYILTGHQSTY

[18] = biological target: Insulin-like growth factor 1 receptor (Homo sapiens, UniProt P08069); test: Navigating the Kinome. Panel member name: IGF1R
[19] = biological target: cAMP-dependent protein kinase catalytic subunit alpha (Homo sapiens, UniProt P17612)
[20] = biological target: Macrophage colony-stimulating factor 1 receptor (Homo sapiens, UniProt P07333);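 note: value comes from the Navigating the Kinome screening panel, CSF1R member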
Sequence of Macrophage colony-stimulating factor 1 receptor (P07333 whole entry): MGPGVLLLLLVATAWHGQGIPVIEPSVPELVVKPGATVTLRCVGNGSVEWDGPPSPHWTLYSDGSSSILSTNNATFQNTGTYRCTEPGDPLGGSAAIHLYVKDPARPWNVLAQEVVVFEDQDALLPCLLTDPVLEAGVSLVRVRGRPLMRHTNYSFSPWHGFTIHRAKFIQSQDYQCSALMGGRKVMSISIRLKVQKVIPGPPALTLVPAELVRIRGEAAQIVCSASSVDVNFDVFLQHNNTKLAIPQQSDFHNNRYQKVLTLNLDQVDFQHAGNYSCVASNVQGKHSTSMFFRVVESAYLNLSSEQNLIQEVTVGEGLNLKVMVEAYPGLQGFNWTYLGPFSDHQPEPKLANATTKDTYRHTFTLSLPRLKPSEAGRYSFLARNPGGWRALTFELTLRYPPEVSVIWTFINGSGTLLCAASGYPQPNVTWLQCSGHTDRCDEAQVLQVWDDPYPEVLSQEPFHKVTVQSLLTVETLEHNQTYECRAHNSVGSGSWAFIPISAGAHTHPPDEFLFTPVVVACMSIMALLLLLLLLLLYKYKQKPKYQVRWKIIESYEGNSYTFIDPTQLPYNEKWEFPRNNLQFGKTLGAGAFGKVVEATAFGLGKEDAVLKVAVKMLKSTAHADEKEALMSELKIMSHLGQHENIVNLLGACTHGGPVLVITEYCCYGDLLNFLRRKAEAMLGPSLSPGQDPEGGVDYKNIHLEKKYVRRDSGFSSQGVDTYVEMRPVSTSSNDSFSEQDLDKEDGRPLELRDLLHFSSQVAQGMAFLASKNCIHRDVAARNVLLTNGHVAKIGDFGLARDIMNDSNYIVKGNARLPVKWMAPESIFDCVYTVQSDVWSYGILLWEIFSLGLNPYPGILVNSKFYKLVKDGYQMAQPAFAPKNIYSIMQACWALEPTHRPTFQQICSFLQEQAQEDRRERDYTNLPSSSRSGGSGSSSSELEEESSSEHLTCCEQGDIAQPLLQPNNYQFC

Caspase-3 = biological target: T1, Caspase-3 (Homo sapiens, UniProt P42574);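 note: Dose-response selectivity test against caspase-3 for candidate inhibitors of sentrin-specific proteases (SENPs)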
T1 sequence (P42574 whole entry): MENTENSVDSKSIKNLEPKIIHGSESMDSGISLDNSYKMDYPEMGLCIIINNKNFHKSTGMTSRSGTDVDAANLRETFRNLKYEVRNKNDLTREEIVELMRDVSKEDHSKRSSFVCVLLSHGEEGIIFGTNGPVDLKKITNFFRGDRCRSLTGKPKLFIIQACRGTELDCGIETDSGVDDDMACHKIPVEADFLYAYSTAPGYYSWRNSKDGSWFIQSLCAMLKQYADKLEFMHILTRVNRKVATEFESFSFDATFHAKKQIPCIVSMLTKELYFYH

[21] = biological target: T2, Sentrin-specific protease 7 (Homo sapiens, UniProt Q9BQF6);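 note: Luminescence-based dose-response confirmation of ultra-high-throughput screening hits, measuring inhibition of SENP7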
T2 sequence (Q9BQF6 whole entry): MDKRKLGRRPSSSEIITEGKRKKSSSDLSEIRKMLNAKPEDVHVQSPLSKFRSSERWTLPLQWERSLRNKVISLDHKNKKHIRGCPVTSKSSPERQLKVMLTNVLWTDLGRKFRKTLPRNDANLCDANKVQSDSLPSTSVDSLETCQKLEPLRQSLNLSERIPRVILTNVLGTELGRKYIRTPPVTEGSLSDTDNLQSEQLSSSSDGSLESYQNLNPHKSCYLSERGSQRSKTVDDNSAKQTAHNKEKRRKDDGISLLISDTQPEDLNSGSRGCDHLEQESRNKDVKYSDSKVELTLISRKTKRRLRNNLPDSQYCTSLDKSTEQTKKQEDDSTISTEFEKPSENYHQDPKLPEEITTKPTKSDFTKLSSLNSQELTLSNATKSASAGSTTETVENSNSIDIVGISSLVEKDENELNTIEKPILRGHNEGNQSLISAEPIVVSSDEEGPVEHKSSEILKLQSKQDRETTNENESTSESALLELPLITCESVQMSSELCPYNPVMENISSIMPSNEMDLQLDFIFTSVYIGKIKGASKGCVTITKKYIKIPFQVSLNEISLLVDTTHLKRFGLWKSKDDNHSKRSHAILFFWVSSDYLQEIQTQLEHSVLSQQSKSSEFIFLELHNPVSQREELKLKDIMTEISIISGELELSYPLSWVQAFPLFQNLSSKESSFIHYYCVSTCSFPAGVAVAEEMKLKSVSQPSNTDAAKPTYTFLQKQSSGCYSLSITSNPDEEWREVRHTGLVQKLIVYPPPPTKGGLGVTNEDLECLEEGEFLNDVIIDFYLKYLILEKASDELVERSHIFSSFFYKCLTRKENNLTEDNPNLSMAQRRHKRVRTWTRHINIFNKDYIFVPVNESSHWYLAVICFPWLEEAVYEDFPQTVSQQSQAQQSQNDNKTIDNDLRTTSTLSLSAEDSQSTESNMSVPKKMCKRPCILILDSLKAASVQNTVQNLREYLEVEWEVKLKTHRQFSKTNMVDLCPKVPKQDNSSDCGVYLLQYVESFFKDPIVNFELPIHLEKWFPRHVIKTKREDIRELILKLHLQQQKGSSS

[22] = biological target: T3, Sentrin-specific protease 8 (Homo sapiens, UniProt Q96LD8);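 note: luminescence read-out of SENP8 inhibition, dose-response confirmation following an ultra-high-throughput screen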
T3 sequence (Q96LD8 whole entry): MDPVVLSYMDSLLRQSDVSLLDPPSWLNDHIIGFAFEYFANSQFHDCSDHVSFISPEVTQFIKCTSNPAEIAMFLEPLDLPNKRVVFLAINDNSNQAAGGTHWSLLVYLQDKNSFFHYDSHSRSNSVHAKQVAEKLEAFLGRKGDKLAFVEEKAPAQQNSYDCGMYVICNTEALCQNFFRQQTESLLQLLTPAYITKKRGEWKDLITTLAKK

Sequence of Serine/threonine-protein kinase TBK1 (Q9UHD2 whole entry): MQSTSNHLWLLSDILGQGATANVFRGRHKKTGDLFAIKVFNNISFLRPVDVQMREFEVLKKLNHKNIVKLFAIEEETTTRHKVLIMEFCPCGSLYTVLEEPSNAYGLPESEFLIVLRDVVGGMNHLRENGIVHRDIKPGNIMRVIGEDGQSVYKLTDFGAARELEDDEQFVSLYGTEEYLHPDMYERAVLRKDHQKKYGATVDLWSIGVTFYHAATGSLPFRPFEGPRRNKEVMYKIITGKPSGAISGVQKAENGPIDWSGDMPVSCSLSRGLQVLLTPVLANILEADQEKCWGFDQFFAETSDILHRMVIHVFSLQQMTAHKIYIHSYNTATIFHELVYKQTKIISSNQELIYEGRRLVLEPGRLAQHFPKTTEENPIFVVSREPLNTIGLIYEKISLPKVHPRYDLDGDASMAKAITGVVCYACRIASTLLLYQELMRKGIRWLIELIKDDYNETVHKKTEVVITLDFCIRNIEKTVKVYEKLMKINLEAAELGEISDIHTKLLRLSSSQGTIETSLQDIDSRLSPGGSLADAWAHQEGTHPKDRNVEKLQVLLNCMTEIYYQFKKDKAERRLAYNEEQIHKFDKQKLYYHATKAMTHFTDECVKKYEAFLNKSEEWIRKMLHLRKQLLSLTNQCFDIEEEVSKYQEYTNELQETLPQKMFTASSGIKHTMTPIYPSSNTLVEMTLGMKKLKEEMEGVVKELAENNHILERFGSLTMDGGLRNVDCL

Ki [1]	Ki [2]	Ki (Activin receptor type-1)	Ki [3]	Ki [4]	Ki [5]	Ki [6]	Ki [7]	Ki [8]	Ki [9]	Ki [10]	Ki [11]	Ki [12]	Structure (SMILES)	Ki [13]	Ki [14]	Ki [15]	Ki [16]	Ki [17]	Ki [18]	Ki [19]	also measured
> 3160 nM (inactive)	> 6310 nM (inactive)	3160 nM (active)	3980 nM (active)	1580 nM (active)	> 3980 nM (inactive)	1000 nM (active)	1000 nM (active)	3980 nM (active)	1580 nM (active)	398 nM (active)	> 5010 nM (inactive)	3160 nM (active)	Cc1ccc(C)c(NC(=O)c2cc(-c3ccco3)nc3ccccc23)c1	> 3980 nM (inactive)	–	–	–	–	–	–	–
631 nM (active)	> 6310 nM (inactive)	631 nM (active)	2000 nM (active)	> 3980 nM (inactive)	> 3980 nM (inactive)	251 nM (active)	> 3980 nM (inactive)	> 3980 nM (inactive)	> 3980 nM (inactive)	200 nM (active)	398 nM (active)	501 nM (active)	COc1ccc(C2=NNc3cccc4c(OC)ccc2c34)cc1OC	–	1580 nM (active)	1000 nM (active)	12.6 nM (active)	2000 nM (active)	> 2510 nM (inactive)	> 1260 nM (inactive)	Ki [20]: > 2510 nM (inactive)
–	–	–	–	–	–	–	–	–	–	–	–	–	Cc1ccc(NC2=C(NCCO)C(=O)c3ccccc3C2=O)cc1	–	–	–	–	–	–	–	IC50 (Caspase-3): 11400 nM (active); IC50 [21]: 11600 nM (active); IC50 [22]: 9120 nM (active)
–	–	–	–	–	–	–	–	–	–	–	–	–	CN1CCC(c2c(O)cc(O)c3c(=O)cc(-c4ccccc4Cl)oc23)C(O)C1 (stereo not drawn)	3980 nM (active)	79.4 nM (active)	> 2000 nM (inactive)	> 5010 nM (inactive)	1000 nM (active)	> 2000 nM (inactive)	> 3980 nM (inactive)	Ki [20]: > 2510 nM (inactive)
–	–	–	–	–	–	–	–	–	–	–	–	–	CC(/C=C1\SC(=S)N(NS(=O)(=O)c2ccc(C)cc2)C1=O)=C\c1ccccc1	–	–	–	–	–	–	–	IC50 (Caspase-3): 12900 nM (active); IC50 [21]: 43900 nM (active); IC50 [22]: 3940 nM (active)
